# Results: patent US20080051387A1, “TETRAHYDROPYRIDO[3,4-D]PYRIMIDINES AND RELATED ANALOGUES” (priority 2006, published 2008)
# Target: T1, chimeric human H3 receptor (Homo sapiens, UniProt Q9Y5N1)
# T1 construct: rat Galpha-i2 (Gnai2, rat); made in house; host or cells: Sf9 insect cells (baculovirus); P2 membranes
# Test: Chimeric human H3 receptor GTP binding assay (agonist-stimulated GTP-gamma35S binding, Example 7)
# Assay type: biochemical
# Details: P2 membranes of Sf9 cells, 1 μM histamine as agonist, Ki from IC50 by Cheng-Prusoff; read-out: Ki
# Text: This Example illustrates a representative assay for evaluating agonist-stimulated GTP-gamma^35S binding (“GTP binding”) activity. […] This agonist-stimulated GTP binding activity can also be used to detect partial agonism mediated by antagonist compounds. A compound analyzed in this assay is referred to herein as a “test compound.”
# Four independent baculoviral stocks (one directing the expression of the chimeric human H3 receptor and three directing the expression of each of the three subunits of a heterotrimeric G-protein) are used to infect a culture of Sƒ9 cells as described above. P2 membranes are prepared as described above, and agonist-stimulated GTP binding on the P2 membranes is assessed using histamine (Sigma Chemical Co., St. Louis, Mo.) as agonist in order to ascertain that the receptor/G-protein-alpha-beta-gamma combination(s) yield a functional response as measured by GTP binding. P2 membranes are resuspended by Dounce homogenization (tight pestle) in GTP binding assay buffer (50 mM Tris pH 7.4, 120 mM NaCl, 5 mM MgCl2, 2 mM EGTA, 1 mg/ml BSA, 0.2 mg/ml bacitracin, 0.02 mg/ml aprotinin, 0.01 mg/ml saponin, 10 μM GDP) and added to assay tubes at a concentration of 35 μg protein/reaction tube. After adding increasing doses of histamine at concentrations ranging from 10-12 M to 10^−5 M, reactions are initiated by the addition of 125 pM GTP-gamma^35S (PERKIN ELMER; Boston, Mass.) with a final assay volume of 0.20 ml. In competition experiments, non-radiolabeled test compounds are added to separate reactions at concentrations ranging from 10^−10 M to 10^−6 M along with 1 μM histamine to yield a final volume of 0.20 ml.
# Neutral antagonists are antagonists that are substantially free of inherent agonist activity, and include those test compounds that reduce the histamine-stimulated GTP binding activity towards, but not below, baseline levels. In contrast, in the absence of added histamine, inverse agonists reduce the GTP binding activity of the receptor-containing membranes below baseline.
# After a 60-min incubation at room temperature, reactions are terminated by vacuum filtration over WHATMAN GF/C filters (pre-soaked in wash buffer, 0.1% BSA) followed by washing with ice-cold wash buffer (50 mM Tris pH 7.4, 120 mM NaCl). The amount of receptor-bound (and thereby membrane-bound) GTP-gamma^35S is determined by measuring the filter-bound radioactivity, preferably by liquid scintillation spectrometry of the washed filters. Non-specific binding is determined in parallel assays including 10 μM unlabeled GTP-gammaS and typically represents less than 5 percent of total binding. Data is expressed as percent above basal (baseline). The results of GTP binding experiments are analyzed using SIGMAPLOT software (SPSS Inc., Chicago, Ill.). IC50 values are calculated by non-linear regression analysis of dose-response curves using Kaleidograph (Synergy Software, Reading, Pa.).
# Alternatively the data is analyzed as follows. First, the average bound radioactivity from negative control wells (no agonist) is subtracted from the bound radioactivity detected for each of the other experimental wells. Second, average bound radioactivity is calculated for the positive control wells (agonist wells). Then, percent inhibition for each compound tested is calculated using the equation: [formula]
# Calculated IC50 values are converted to Ki values by the Cheng-Prusoff correction (Cheng and Prusoff (1973) Biochem. Pharmacol. 22(23):3099-3108). Accordingly, the following equation: Ki=IC50/(1+[L]/EC50) is used, where [L] is the histamine concentration in the GTP binding assay, and EC50 is the concentration of histamine producing a 50% response, as determined by a dose-response analysis using concentrations of histamine ranging from 10^−10 M to 10^−6 M. […]
# T1 sequence (Q9Y5N1 with tags, fused parts or gaps): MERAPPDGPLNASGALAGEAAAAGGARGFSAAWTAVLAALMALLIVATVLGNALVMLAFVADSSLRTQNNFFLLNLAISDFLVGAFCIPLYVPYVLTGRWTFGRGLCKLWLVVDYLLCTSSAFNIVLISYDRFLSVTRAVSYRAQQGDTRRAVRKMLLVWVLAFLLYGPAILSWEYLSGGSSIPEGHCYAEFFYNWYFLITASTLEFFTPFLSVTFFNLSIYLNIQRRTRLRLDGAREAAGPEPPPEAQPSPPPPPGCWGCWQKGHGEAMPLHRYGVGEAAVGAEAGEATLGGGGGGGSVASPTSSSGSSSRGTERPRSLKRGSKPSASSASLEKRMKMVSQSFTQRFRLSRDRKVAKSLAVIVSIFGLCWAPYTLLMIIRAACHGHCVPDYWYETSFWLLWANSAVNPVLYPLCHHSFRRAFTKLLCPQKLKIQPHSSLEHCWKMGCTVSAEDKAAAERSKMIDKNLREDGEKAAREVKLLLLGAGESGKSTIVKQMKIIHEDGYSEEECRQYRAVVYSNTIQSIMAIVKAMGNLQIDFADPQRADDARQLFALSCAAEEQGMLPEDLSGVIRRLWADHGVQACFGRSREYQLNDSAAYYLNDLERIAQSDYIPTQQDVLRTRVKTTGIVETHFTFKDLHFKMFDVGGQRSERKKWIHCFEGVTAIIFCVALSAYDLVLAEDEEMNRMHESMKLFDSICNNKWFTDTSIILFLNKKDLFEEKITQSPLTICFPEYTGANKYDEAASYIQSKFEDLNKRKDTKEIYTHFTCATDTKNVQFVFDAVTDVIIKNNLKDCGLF
row,Ki [µM],Structure (SMILES)
1,< 1,"c1nc2c(c(N3CCN(C4CCC4)CC3)n1)CCNCC2 [Compound 144, 4-(4-cyclobutylpiperazin-1-yl)-6,7,8,9-tetrahydro-5H-pyrimido[4,5-d]azepine]"
2,< 1,"CC(=O)N1CCc2nc(N3CCN(C4CCC4)CC3)ncc2C1 [Compound 608, 6-acetyl-2-(4-cyclobutylpiperazin-1-yl)-5,6,7,8-tetrahydropyrido[4,3-d]pyrimidine]"
3,< 1,"CC(=O)c1ccc(N2CCc3nc(N4CCN(C5CCC5)CC4)ncc3C2)nc1 [Compound 610, 1-{6-[2-(4-cyclobutylpiperazin-1-yl)-7,8-dihydropyrido[4,3-d]pyrimidin-6(5H)-yl]pyridin-3-yl}ethanone]"
4,< 1,"c1nc(N2CCN(C3CCC3)CC2)nc2c1CN(C1CCC1)CC2 [Compound 609, 6-cyclobutyl-2-(4-cyclobutylpiperazin-1-yl)-5,6,7,8-tetrahydropyrido[4,3-d]pyrimidine]"
5,< 1,"CC(C)(C)N1CCN(c2ncnc3c2CCN(Cc2ccccc2)C3)CC1 [Compound 13, 7-benzyl-4-(4-tert-butylpiperazin-1-yl)-5,6,7,8-tetrahydropyrido[3,4-d]pyrimidine]"
6,< 1,"c1ccc(CN2CCc3nc(N4CCN(C5CCC5)CC4)ncc3C2)cc1 [Compound 605, 6-benzyl-2-(4-cyclobutylpiperazin-1-yl)-5,6,7,8-tetrahydropyrido[4,3-d]pyrimidine]"
7,< 1,"CC(=O)c1ccc(OCC(=O)N2CCc3ncnc(N4CCN(C5CCC5)CC4)c3CC2)cc1 [Compound 143, 1-(4-{2-[4-(4-cyclobutylpiperazin-1-yl)-5,6,8,9-tetrahydro-7H-pyrimido[4,5-d]azepin-7-yl]-2-oxoethoxy}phenyl)ethanone]"
8,< 1,"CNC(=O)c1ccc(N2CCc3nc(N4CCN(C5CCC5)CC4)ncc3C2)nc1 [Compound 648, 6-[2-(4-cyclobutylpiperazin-1-yl)-7,8-dihydropyrido[4,3-d]pyrimidin-6(5H)-yl]-N-methylnicotinamide]"
9,< 1,"CCN1CCc2nc(N3CCN(C4CCC4)CC3)ncc2C1 [Compound 606, 2-(4-cyclobutylpiperazin-1-yl)-6-ethyl-5,6,7,8-tetrahydropyrido[4,3-d]pyrimidine]"
10,< 1,"c1ccc(CN2CCc3ncnc(N4CCN(C5CCC5)CC4)c3CC2)cc1 [Compound 142, 7-benzyl-4-(4-cyclobutylpiperazin-1-yl)-6,7,8,9-tetrahydro-5H-pyrimido[4,5-d]azepine]"
11,< 1,"c1nc(N2CCN(C3CCC3)CC2)nc2c1CN(CC1CCCCC1)CC2 [Compound 607, 2-(4-cyclobutylpiperazin-1-yl)-6-(cyclohexylmethyl)-5,6,7,8-tetrahydropyrido[4,3-d]pyrimidine]"

# Same assay, conditions: P2 membranes of Sf9 cells, 1 μM histamine as agonist; read-out: Ki in the assay of Example 7
row,Ki [µM],Structure (SMILES)
1,< 1,"O=C(c1ccccc1)N1CCc2ncnc(N3CCN(C4CCC4)CC3)c2CC1 [Compound 8, [4-(4-Cyclobutyl-piperazin-1-yl)-5,6,8,9-tetrahydro-pyrimido[4,5-d]azepin-7-yl]-phenyl-methanone]"
2,< 1,"c1nc(N2CCN(C3CCC3)CC2)nc2c1CCN(CC1CCCCC1)CC2 [Compound 9, 2-(4-Cyclobutyl-piperazin-1-yl)-7-cyclohexylmethyl-6,7,8,9-tetrahydro-5H-pyrimido[4.5-d]azepine]"
3,< 1,"c1nc2c(c(N3CCN(C4CCC4)CC3)n1)CCN(CC1CCCCC1)CC2 [Compound 6, 4-(4-Cyclobutyl-piperazin-1-yl)-7-cyclohexylmethyl-6,7,8,9-tetrahydro-5H-pyrimido[3,4-d]azepine]"
4,< 1,"CC(=O)c1ccc(N2CCc3ncnc(N4CCN(C5CCC5)CC4)c3CC2)cc1 [Compound 7, 1-{4-[4-(4-Cyclobutyl-piperazin-1-yl)-5,6,8,9-tetrahydro-pyrimido[4,5-d]azepin-7-yl]-phenyl}-ethanone]"
5,< 1,"CC(=O)c1ccc(N2CCc3nc(N4CCN(C5CCC5)CC4)ncc3C2)cc1 [Compound 5, 1-{4-[2-(4-Cyclobutyl-piperazin-1-yl)-7,8-dihydro-5H-pyrido[4,3-d]pyrimidin-6-yl]-phenyl}-ethanone]"

# Same assay, conditions: assay of Example 7; symbol "*" in column headed Ki; read-out: Ki
row,Ki [µM],Structure (SMILES)
1,< 1,"c1nc(N2CCN(C3CCC3)CC2)nc2c1CCN(C1CCC1)CC2 [Compound 590, 7-cyclobutyl-2-(4-cyclobutylpiperazin-1-yl)-6,7,8,9-tetrahydro-5H-pyrimido[4,5-d]azepine]"
2,< 1,"CCN1CCN(c2ncc3c(n2)CCN(CC2CCOCC2)CC3)CC1 [Compound 598, 2-(4-ethylpiperazin-1-yl)-7-(tetrahydro-2H-pyran-4-ylmethyl)-6,7,8,9-tetrahydro-5H-pyrimido[4,5-d]azepine]"
3,< 1,"FC(F)(F)CN1CCc2cnc(N3CCN(C4CCC4)CC3)nc2CC1 [Compound 592, 2-(4-cyclobutylpiperazin-1-yl)-7-(2,2,2-trifluoroethyl)-6,7,8,9-tetrahydro-5H-pyrimido[4,5-d]azepine]"
4,< 1,"O=C(c1ccccc1)N1CCc2cnc(N3CCN(C4CCC4)CC3)nc2CC1 [Compound 183, 7-benzoyl-2-(4-cyclobutylpiperazin-1-yl)-6,7,8,9-tetrahydro-5H-pyrimido[4,5-d]azepine]"
5,< 1,"FC1(F)CCC(CN2CCc3cnc(N4CCN(C5CCC5)CC4)nc3CC2)CC1 [Compound 594, 2-(4-cyclobutylpiperazin-1-yl)-7-[(4,4-difluorocyclohexyl)methyl]-6,7,8,9-tetrahydro-5H-pyrimido[4,5-d]azepine]"
6,< 1,"CNC(=O)c1ccc(N2CCN(c3ncc4c(n3)CCN(C3CCC3)CC4)CC2)nc1 [Compound 604, 6-[4-(7-cyclobutyl-6,7,8,9-tetrahydro-5H-pyrimido[4,5-d]azepin-2-yl]piperazin-1-yl]-N-methylnicotinamide]"
7,< 1,"CC1CCC[C@@H]2CN(c3ncc4c(n3)CCN(C3CCC3)CC4)CCN12 (stereo partly shown) [Compound 596, 7-cyclobutyl-2-(6-methyloctahydro-2H-pyrido[1,2-a]pyrazin-2-yl)-6,7,8,9-tetrahydro-5H-pyrimido[4,5-d]azepine]"
8,< 1,"FC(F)(F)CN1CCN(c2ncc3c(n2)CCN(C2CCC2)CC3)CC1 [Compound 602, 7-cyclobutyl-2-[4-(2,2,2-trifluoroethyl)piperazin-1-yl]-6,7,8,9-tetrahydro-5H-pyrimido[4,5-d]azepine]"
9,< 1,"COCCN1CCc2cnc(N3CCN(C4CCC4)CC3)nc2CC1 [Compound 593, 2-(4-cyclobutylpiperazin-1-yl)-7-(2-methoxyethyl)-6,7,8,9-tetrahydro-5H-pyrimido[4,5-d]azepine]"
10,< 1,"c1nc(N2CCN(C3CCC3)CC2)nc2c1CCN(C1CCOCC1)CC2 [Compound 591, 2-(4-cyclobutylpiperazin-1-yl)-7-(tetrahydro-2H-pyran-4-yl)-6,7,8,9-tetrahydro-5H-pyrimido[4,5-d]azepine]"
11,< 1,"FC(F)(F)CCN1CCc2cnc(N3CCN(C4CCC4)CC3)nc2CC1 [Compound 595, 2-(4-cyclobutylpiperazin-1-yl)-7-(3,3,3-trifluoropropyl)-6,7,8,9-tetrahydro-5H-pyrimido[4,5-d]azepine]"
12,< 1,"CC(C)(C)OC(=O)N1CCN(c2ncc3c(n2)CCN(C2CCC2)CC3)CC1 [Compound 601, tert-butyl 4-(7-cyclobutyl-6,7,8,9-tetrahydro-5H-pyrimido[4,5-d]azepin-2-yl)piperazine-1-carboxylate]"
